This is an account of results in publication PMC4052451 (Journal of medicinal chemistry, 2013).

*: point of attachment. Dnp = O=[N+]([O-])c1ccc(*)c([N+](=O)[O-])c1; Mca = COc1ccc2c(CC(=O)*)cc(=O)oc2c1

Assay [1] has as its target N-domain of sACE-1 (Homo sapiens, UniProt P12821). As to the kind of experiment: Reversible inhibition of the N-domain of sACE-1, fluorogenic substrate Abz-SDK. In kind it is biochemical. The conditions noted are these: Abz-SDK(Dnp)P-OH 7.5, 10, 15 µM; absence of co-reactants.
Assay [2] addresses C-domain of sACE-1 (Homo sapiens, UniProt P12821). In words: Reversible inhibition of the C-domain of sACE-1, fluorogenic substrate Abz-LFK. To be noted: Abz-LFK(Dnp)-OH 7.5, 10, 15 µM; absence of co-reactants. Format: biochemical.
For assay [3] the following is noted: ref [15],[24]; cited from earlier work.
The conditions of assay [4]: in SHR; ref [38]; cited from earlier work.
Assay [5] concerns ACE. To be noted: ref [38]; cited from earlier work.
The target in assay [6] is sACE-1 (Homo sapiens, UniProt P12821). To be noted: generic substrate of previous study; ref [30]; cited from earlier work.
Sequence of sACE-1 (P12821 30-1261): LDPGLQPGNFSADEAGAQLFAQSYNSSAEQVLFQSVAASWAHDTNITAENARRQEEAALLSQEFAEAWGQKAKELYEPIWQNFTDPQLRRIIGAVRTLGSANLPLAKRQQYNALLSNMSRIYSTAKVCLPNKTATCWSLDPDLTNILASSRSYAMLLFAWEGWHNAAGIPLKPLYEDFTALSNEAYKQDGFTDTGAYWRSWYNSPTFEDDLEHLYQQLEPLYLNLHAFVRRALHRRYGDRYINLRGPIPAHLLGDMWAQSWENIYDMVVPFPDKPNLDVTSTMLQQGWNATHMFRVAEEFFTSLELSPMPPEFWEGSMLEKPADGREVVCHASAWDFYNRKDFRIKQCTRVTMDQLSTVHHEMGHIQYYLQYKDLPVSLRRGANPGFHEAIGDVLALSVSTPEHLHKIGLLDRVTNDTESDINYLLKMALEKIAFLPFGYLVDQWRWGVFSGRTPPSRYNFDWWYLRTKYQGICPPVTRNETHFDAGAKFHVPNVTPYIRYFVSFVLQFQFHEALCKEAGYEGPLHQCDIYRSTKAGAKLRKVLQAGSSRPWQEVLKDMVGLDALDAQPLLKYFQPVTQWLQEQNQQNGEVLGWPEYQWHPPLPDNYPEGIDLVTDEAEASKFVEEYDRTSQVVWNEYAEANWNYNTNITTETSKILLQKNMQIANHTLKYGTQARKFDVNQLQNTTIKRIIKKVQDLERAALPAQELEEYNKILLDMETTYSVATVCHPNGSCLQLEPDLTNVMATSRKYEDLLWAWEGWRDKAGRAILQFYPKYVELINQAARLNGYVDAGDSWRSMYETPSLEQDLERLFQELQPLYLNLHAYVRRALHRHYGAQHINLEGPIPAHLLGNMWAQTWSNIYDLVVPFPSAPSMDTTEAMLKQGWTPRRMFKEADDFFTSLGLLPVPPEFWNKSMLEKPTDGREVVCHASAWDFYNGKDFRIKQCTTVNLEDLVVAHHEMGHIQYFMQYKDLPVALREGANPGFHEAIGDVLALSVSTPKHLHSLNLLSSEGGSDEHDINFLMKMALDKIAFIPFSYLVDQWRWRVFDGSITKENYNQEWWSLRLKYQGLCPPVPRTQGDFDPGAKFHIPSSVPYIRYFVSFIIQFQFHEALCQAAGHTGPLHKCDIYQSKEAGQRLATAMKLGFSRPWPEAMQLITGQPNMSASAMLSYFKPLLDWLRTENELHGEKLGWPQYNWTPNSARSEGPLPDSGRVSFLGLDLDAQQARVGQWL

Sequence of N-domain of sACE-1 (P12821 30-1261): as above
Sequence of C-domain of sACE-1 (P12821 30-1261): as above

In the case of `NCCCC[C@H](N[C@@H](CCc1ccccc1)C(=O)O)C(=O)N1CCC[C@H]1C(=O)O` [Lisinopril], in assay [1], the “Inhibition mode by Dixon plot (N-domain)” value is “competitive inhibitors”. The “Inhibition mode by Dixon plot (C-domain)” value in assay [2] was “competitive inhibitors”. Take “Ac-Asp-(L)Pheψ(PO2-CH2)(L)Ala-Ala-NH2 [RXP407]”: the “Effect on blood pressure regulation” value in assay [3] was “no effect on blood pressure regulation”.

For Ile-Pro-Pro, in assay [4], the lowers blood pressure is given as at most 30 mmHg. Moreover, the IC50 (usually the concentration needed to halve the response being measured) in assay [5] is 5 µM. As for “Mca-RPPGFSAFK(Dnp)-OH (SMILES COc1ccc2c(CC(=O)N[C@@H](CCCNC(=N)N)C(=O)N3CCC[C@H]3C(=O)N3CCC[C@H]3C(=O)NCC(=O)N[C@@H](Cc3ccccc3)C(=O)N[C@@H](CO)C(=O)N[C@@H](C)C(=O)N[C@@H](Cc3ccccc3)C(=O)N[C@@H](CCCCNc3ccc([N+](=O)[O-])cc3[N+](=O)[O-])C(=O)O)cc(=O)oc2c1)”, in assay [6], the Michaelis-Menten constant (Km) (in general, the concentration of substrate that gives half-maximal velocity) is 4.5 ± 0.6 µM; the kcat (as a rule, the number of substrate molecules converted per active site and unit of time at saturation) was 20.33 ± 0.833 s⁻¹.
